Marks after values point to notes of the source that are not given here.
Molecular target: T1, GBA (glucosylceramidase, GCase), L444P GBA mutation (Homo sapiens, UniProt P04062, L483P)
T1 construct: Human fibroblast cell line GM10915 harboring the L444P GBA mutation was obtained from Coriell Biorepositories; host or cells: GM10915 human fibroblasts
T1 sequence (P04062 40-536 L483P): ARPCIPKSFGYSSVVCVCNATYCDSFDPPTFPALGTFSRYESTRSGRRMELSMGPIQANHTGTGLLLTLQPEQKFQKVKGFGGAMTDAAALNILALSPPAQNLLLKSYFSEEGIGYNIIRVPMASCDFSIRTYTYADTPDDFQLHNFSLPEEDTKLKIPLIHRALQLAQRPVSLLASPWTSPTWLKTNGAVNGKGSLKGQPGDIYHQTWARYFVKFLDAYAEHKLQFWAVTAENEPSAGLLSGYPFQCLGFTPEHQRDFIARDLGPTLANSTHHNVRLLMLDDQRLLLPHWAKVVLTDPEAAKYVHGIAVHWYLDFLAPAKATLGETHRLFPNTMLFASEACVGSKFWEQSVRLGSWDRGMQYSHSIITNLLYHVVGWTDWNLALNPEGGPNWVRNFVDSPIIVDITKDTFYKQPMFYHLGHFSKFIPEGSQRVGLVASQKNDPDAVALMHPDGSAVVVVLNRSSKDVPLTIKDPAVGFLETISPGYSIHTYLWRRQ
Assay: GCase activity assay (4-MUG) in GM10915 fibroblasts, normalised to crystal violet staining
Assay type: cell-based
Conditions: five days exposure; for GBA EC1.5: concentration where Percent GCase activity = 150% (1.5-fold induction), human fibroblast cell line GM10915 (L444P GBA), 8-point dose range; for Emax / GBA Emax: maximum Percent GCase activity in the dose range tested, relative to basal activity of untreated cells, GM10915 (L444P GBA)
Experimental: Human fibroblast cell line GM10915 harboring the L444P GBA mutation was obtained from Coriell Biorepositories.
The GM10915 cell line was cultured under standard cell culture conditions (37° C. and 5% CO2) in complete DMEM medium supplemented with nonessential amino acids (NEAA), 1% Pen-Strep and 12% FCS. Cells were seeded at a density of 10^4 cells/well in 100 μL complete medium in one black 96-well plate for glucosylceramidase (GCase) activity measurement and in one clear 96-well plate for crystal violet staining to correct for cell density. Crystal violet staining is performed to obtain quantitative information about the relative density of cells adhering to multi-wells plates.
The assay was adapted from Sawkar et al (2002) and briefly described in the following. The day after seeding of cells, the medium was replaced with fresh medium containing the compounds to be tested. Compounds were tested in duplicate and in an 8-point diluted dose range to obtain a dose response. Cells were exposed with compounds for five days. Fresh compound was added every 2-3 days. PBS was included to define the basal level of GCase activity.
Cells were washed three times with 200 μL PBS per well and 50 μL of 2.5 mM 4-MUG buffer (4-MUG dissolved in 0.2 M acetate buffer pH 4.0) was added and the cells were incubated at 37° C., 5% CO2 for 23 hours. The reaction was stopped by adding 150 μL 0.2 M glycine buffer (pH 10.8). Fluorescence was measured with a Varioskan® Flash reader (Thermo Scientific) at an excitation/emission setting of 365/445 nm.
Cells were treated with compounds in a parallel setup identical to the setup to test for GCase activity. At the end of compound treatment, cells were washed once with 200 μL PBS per well and 50 μL 0.1% w/v crystal violet (in H20) was added. Following 10 min. of incubation, the crystal violet solution was removed, and the cells were washed three times with 200 μL PBS and 100 μL 1% SDS was added to solubilize the stain.
The plate was agitated on an orbital shaker for 10-30 min. Absorbance (A) is measured at […] using a Varioskan® Flash reader (Thermo Scientific).
The fluorescence signal (F) derived from the GCase measurement is normalized to the absorbance signal (A) derived from the crystal violet staining. The percent GCase activity resulting from compound treatment is calculated relative to the basal activity obtained from untreated cells.
Maximal effect of compounds (E max) is determined from the dose response effects as the maximum “Percent GCase activity” achieved in the dose range tested.

GBA EC1.5 | Emax | GBA Emax | SMILES
3.9 µM | 236% |  | CN1CCCC(c2cnc(CN3CCCCC3)cn2)C1 (stereo not shown) [compound 773]
4.3 µM | 211% |  | Cc1cc(CN2CCCCC2)cnc1C1CCNCC1 [compound 760]
4.3 µM | 200% |  | CN1CCCC(c2ccc(CN3CCCCC3)nc2)C1 (stereo not shown) [compound 776]
24.5 µM | 186% |  | c1cc(CN2CCCCC2)ncc1C1CCNCC1 [compound 775]
2.5 µM | 250% |  | CN1CCC(c2cccc(CN3CCCCC3)n2)C1 (stereo not shown) [compound 798]
4.1 µM | 263% |  | c1cc(CN2CCCCC2)nc(C2CCNCC2)n1 [compound 638]
7.0 µM | 185% |  | Cc1cc(CN2CCCCC2)cc(C2CCN(C)CC2)n1 [compound 795]
3.4 µM | 263% |  | c1cc(C2CCCNC2)ncc1CN1CCCCC1 (stereo not shown) [compound 811]
16 µM | 205% |  | Cn1nc(C2CCCNC2)cc1CN1CCCCC1 (stereo not shown) [compound 708]
21 µM | 189% |  | c1cn(C2CCNCC2)nc1CN1CCCCC1 [compound 624]
4.9 µM | 381% |  | c1c(C2CCNC2)noc1CN1CCCCC1 (stereo not shown) [compound 654]
3.3 µM | 227% |  | Cc1cc(CN2CCCCC2)cc(C2CCNCC2)n1 [compound 764]
12.1 µM | 203% |  | c1cc2c(CN3CCCCC3)c[nH]c2nc1C1CCCNC1 (stereo not shown) [compound 833]
43.3 µM | 163% |  | c1cc(C2CCNCC2)nnc1CN1CCCCC1 [compound 855]
29.2 µM | 165% |  | c1cc(CN2CCCCC2)nc(C2CCNC2)c1 (stereo not shown) [compound 793]
18.9 µM | 205% |  | c1ncc(C2CCNC2)cc1CN1CCCCC1 (stereo not shown) [compound 769]
2.8 µM | 245% |  | Fc1c(CN2CCCCC2)ccnc1C1CCNCC1 [compound 846]
6.9 µM | 200% |  | Cc1cc(CN2CCCCC2)cnc1C1CCN(C)CC1 [compound 777]
4.9 µM | 199% |  | CN1CCCC(c2ccc(CN3CCCCC3)cn2)C1 (stereo not shown) [compound 810]
6.5 µM | 155% |  | CN1CCC(c2cc(CN3CCCCC3)ncn2)CC1 [compound 784]

GBA EC1.5 | Emax | GBA Emax | SMILES
19.1 µM | 190% |  | c1nc(C2CCNCC2)cnc1CN1CCCCC1 [compound 753]
9.2 µM | 253% |  | C1=C(c2ccc(CN3CCCCC3)cn2)CNC1 [compound 666]
8.8 µM | 256% |  | CN1CCCC(c2cc(CN3CCCCC3)ncn2)C1 (stereo not shown) [compound 802]
3.5 µM | 236% |  | c1nc(C2CCNCC2)sc1CN1CCCCC1 [compound 620]
2.3 µM | 212% |  | COc1ncc(C2CCN(C)CC2)cc1CN1CCCCC1 [compound 735]
3.9 µM | 173% |  | Cc1ccc(CN2CCCCC2)nc1C1CCN(C)CC1 [compound 801]
5.4 µM | 248% |  | Cc1cc(C2CCCN(C)C2)nc(CN2CCCCC2)n1 (stereo not shown) [compound 738]
7.5 µM | 234% |  | c1c(C2CCNCC2)noc1CN1CCCCC1 [compound 586]
2.6 µM | 267% |  | CN1CCCC(c2cccc(CN3CCCCC3)n2)C1 (stereo not shown) [compound 796]
21.5 µM |  | 203% | Cc1cc(C2CCCNC2)nc(CN2CCCCC2)n1 (stereo not shown) [compound 737]
46 µM | 169% |  | C1CCN(Cc2noc(C3CCCNC3)n2)CC1 (stereo not shown) [compound 614]
3.1 µM | 233% |  | Cc1cc(CN2CCCCC2)cnc1C1CCCNC1 (stereo not shown) [compound 758]
11.8 µM | 180% |  | c1nc(C2CCCNC2)cnc1CN1CCCCC1 (stereo not shown) [compound 754]
3.7 µM | 216% |  | CN1CCCC(c2cncc(CN3CCCCC3)c2)C1 (stereo not shown) [compound 736]
5.2 µM | 205% |  | CC(c1cncc(C2CCCNC2)c1)N1CCCCC1 (stereo not shown) [compound 761]
24.8 µM | 160% |  | COc1ncc(C2CCNCC2)cc1CN1CCCCC1 [compound 715]
18.0 µM | 175% |  | c1nc(CN2CCCCC2)cc(C2CCNC2)n1 (stereo not shown) [compound 832]
8.0 µM | 193% |  | c1cc2ncc(CN3CCCCC3)n2cc1C1CCNCC1 [compound 853]
9.7 µM | 198% |  | CN1CCC(c2cnc(CN3CCCCC3)cn2)CC1 [compound 774]
4.2 µM | 214% |  | c1cc(CN2CCCCC2)ncc1C1CCCNC1 (stereo not shown) [compound 757]

GBA EC1.5 | Emax | GBA Emax | SMILES
18.5 µM | 211% |  | CC(c1cncc(C2CCNCC2)c1)N1CCCCC1 (stereo not shown) [compound 772]
4.3 µM | 237% |  | Fc1cc(C2CCNCC2)cnc1CN1CCCCC1 [compound 880]
6.7 µM | 255% |  | COc1ncc(C2CCN(C)C2)cc1CN1CCCCC1 (stereo not shown) [compound 812]
35.9 µM | 181% |  | c1nc2cnc(C3CCNCC3)cn2c1CN1CCCCC1 [compound 841]
7.4 µM | 152% |  | Cc1ccc(CN2CCCCC2)nc1C1CCNCC1 [compound 778]
8.0 µM | 278% |  | c1cc(CN2CCCCC2)nc(C2CCNCC2)c1 [compound 788]
3.2 µM | 200% |  | Cc1cc(CN2CCCCC2)nc(C2CCCNC2)c1 (stereo not shown) [compound 732]
6.5 µM | 204% |  | c1nc2cc(CN3CCCCC3)oc2cc1C1CCNCC1 [compound 868]
5.4 µM | 177% |  | c1cc(CN2CCCCC2)cc(C2CCNCC2)n1 [compound 540]
4.4 µM | 165% |  | c1cc(CN2CCCCC2)nc(C2CCCNC2)c1 (stereo not shown) [compound 791]
2.7 µM | 223% |  | COc1ncc(C2CCCNC2)cc1CN1CCCCC1 (stereo not shown) [compound 729]
3.0 µM | 269% |  | CN1CCC(c2cccc(CN3CCCCC3)n2)CC1 [compound 794]
5.0 µM |  | 234% | Cc1cc(C2CCCNC2)nc(CN2CCCCC2)n1 (stereo not shown) [compound 730]
30.8 µM | 176% |  | Cc1cc(C2CCNCC2)nc(CN2CCCCC2)n1 [compound 739]
6.6 µM | 200% |  | c1cc(C2CCNCC2)ncc1CN1CCCCC1 [compound 759]
6.0 µM | 203% |  | COc1ncc(C2CCNC2)cc1CN1CCCCC1 (stereo not shown) [compound 803]
112 µM |  |  | CCCCCO[C@H]1CC[C@H](NC(=O)c2cnn3c(C)cc(C)nc23)CC1 [LTI-291, reference compound]
28.6 µM | 175% |  | c1cc(CN2CCCCC2)ncc1C1CCNC1 (stereo not shown) [compound 808]
9.4 µM | 194% |  | c1cn2cc(CN3CCCCC3)nc2cc1C1CCNCC1 [compound 854]

SMILES | GBA EC1.5 | Emax | GBA Emax
Nc1c(Br)cc(Br)cc1CN[C@H]1CC[C@H](O)CC1 [Ambroxol, reference compound] | >20* *The 1.5-fold induction criteria was not reached within the tested concentration range μM |  | 

From patent publication US20240390357A1, “PYRIDINES AND THEIR USE IN TREATMENT OF GBA-RELATED DISEASES” (ZEVRA DENMARK A/S, priority 2021, published 2024)
